A short description of data set [1]: Solubility in toluene (four-stage evaluation). The data set is classed as physicochemical.
Data set [2] in a line: Solubility in water (four-stage evaluation). The data set is classed as physicochemical.

For the compound `Cc1c(C(C)(C)C)cc(C(C)(C)C)c(O)c1C(=O)O` [1 Free Acid], the “Solubility in Toluene” value in data set [1] is “.largecircle. (solubility =not less than 20% to less than 50%)”. By solubility is commonly meant the concentration that dissolves in the medium under given conditions. A lower solubility goes with a poorly soluble substance. Turning to `C1COCCN1` [1 Morpholine], in data set [2], the solubility is over 500 mg/mL. Further, the “Solubility in Toluene” value in data set [1] is given as “.largecircle. (solubility =not less than 20% to less than 50%)”.

On to `Cc1c(C(C)(C)C)cc(C(C)(C)C)c(O)c1C(=O)O` [1 Sodium], for which, in data set [2], the solubility was over 500 mg/mL. On to `Cc1c(C(C)(C)c2ccccc2)cc(C(C)(C)C)c(O)c1C(=O)O` [2-2 Free Acid], for which the “Solubility in Toluene” value in data set [1] was “.circleincircle. (solubility =not less than 50%)”. For the compound `Cc1c(C(C)(C)c2ccccc2)cc(C(C)(C)C)c(O)c1C(=O)O` [2-2 Morpholine], in data set [2], the “Solubility in Water” value was “.circleincircle. (solubility =not less than 50%)”. Also, the “Solubility in Toluene” value in data set [1] is “.largecircle. (solubility =not less than 20% to less than 50%)”. `Cc1c(C(C)(C)c2ccccc2)cc(C(C)(C)C)c(O)c1C(=O)O` [2-2 Sodium]: in data set [2], the solubility was over 500 mg/mL. `CCC(C)(C)c1cc(C(C)(C)CC)c(O)c(C(=O)O)c1C` [3-2 Free Acid]: the “Solubility in Toluene” value in data set [1] was “.largecircle. (solubility =not less than 20% to less than 50%)”.

As for `CCC(C)(C)c1cc(C(C)(C)CC)c(O)c(C(=O)O)c1C` [3-2 Sodium], in data set [2], the solubility is over 500 mg/mL.

Regarding `Cc1c(C(C)(C)C)cc(C(C)(C)CC(C)(C)C)c(O)c1C(=O)O` [4-3 Free Acid], the “Solubility in Toluene” value in data set [1] is reported as “.circleincircle. (solubility =not less than 50%)”. Regarding `Cc1c(C(C)(C)C)cc(C(C)(C)CC(C)(C)C)c(O)c1C(=O)O` [4-3 Morpholine], the “Solubility in Water” value in data set [2] was “.circleincircle. (solubility =not less than 50%)”. In addition, the “Solubility in Toluene” value in data set [1] was “.largecircle. (solubility =not less than 20% to less than 50%)”. On to `Cc1c(C(C)(C)C)cc(C(C)(C)CC(C)(C)C)c(O)c1C(=O)O` [4-3 Sodium], for which the solubility in data set [2] was over 500 mg/mL. As for `Cc1c(C(C)(C)C)cc(C(C)(C)c2ccccc2)c(O)c1C(=O)O` [5-3 Free Acid], the “Solubility in Toluene” value in data set [1] is “.circleincircle. (solubility =not less than 50%)”. `Cc1c(C(C)(C)C)cc(C(C)(C)c2ccccc2)c(O)c1C(=O)O` [5-3 Morpholine]: the “Solubility in Water” value in data set [2] is “.circleincircle. (solubility =not less than 50%)”. In addition, the “Solubility in Toluene” value in data set [1] was “.largecircle. (solubility =not less than 20% to less than 50%)”. In turn, `Cc1c(C(C)(C)C)cc(C(C)(C)c2ccccc2)c(O)c1C(=O)O` [5-3 Sodium] yielded a solubility in data set [2] of over 500 mg/mL.

As to `Cc1cc(C(C)(C)c2ccccc2)c(C)c(C(=O)O)c1O` [11-2 Free Acid], the “Solubility in Toluene” value in data set [1] was “.largecircle. (solubility =not less than 20% to less than 50%)”. In turn, `Cc1cc(C(C)(C)c2ccccc2)c(C)c(C(=O)O)c1O` [11-2 Sodium] yielded a solubility in data set [2] of over 500 mg/mL. Take `Cc1c(C(C)(C)c2ccccc2)cc(C(C)C)c(O)c1C(=O)O` [12-2 Free Acid]: in data set [1], the “Solubility in Toluene” value is “.circleincircle. (solubility =not less than 50%)”. In turn, `Cc1c(C(C)(C)c2ccccc2)cc(C(C)C)c(O)c1C(=O)O` [12-2 Sodium] came in with a solubility in data set [2] of over 500 mg/mL. `Cc1cc(C(C)(C)c2ccccc2)cc(C(=O)O)c1O` [(2) Free Acid, 3-methyl-5-(α,α-dimethyllbenzyl)salicylic acid, reference compound]: the “Solubility in Toluene” value in data set [1] was “Δ (solubility =not less than 5% to less than 20%)”. Regarding `Cc1cc(C(C)(C)c2ccccc2)cc(C(=O)O)c1O` [(2) Sodium, 3-methyl-5-(α, α-dimethylbenzyl)salicylic acid, reference compound], in data set [2], the solubility lay within 200 to 500 mg/mL.

The values are drawn from patent US5049685A, “Nuclear substituted salicylic acids and their salts” (Sanko Kaihatsu Kagaku Kenkyusho, priority 1988, dated 1991).
